Assay results as given in patent US12566283B2, “Optical absorbent” (LMS CO., LTD., priority 2022, dated 2026).

Tests used:
Assay type in all cases: physicochemical
[1] = Test Example 1: transmittance of optical absorption film before and after reliability evaluation (85° C., 85% relative humidity, 120 hours); conditions: for Tave 425~465 nm, Δ / Tave 466~480 nm, Δ / Tave 480~560 nm, Δ / Tmin 425~465 nm, Δ / Tmin 466~480 nm, Δ / Λmax Tmax, Δ: change rate 100×(A−B)/B; for Tmin 425~465 nm, B: silicone resin film about 6 μm; for Tmin 425~465 nm, B / Tmin 425~465 nm, A / Tmin 466~480 nm, A / Tmin 466~480 nm, B: minimum transmittance; for Tmin 425~465 nm, B / Tave 425~465 nm, B / Tave 466~480 nm, B / Tave 480~560 nm, B / Tmin 466~480 nm, B: before reliability evaluation; for Tave 425~465 nm, A / Tave 466~480 nm, A / Tave 480~560 nm, A / Tave 425~465 nm, B / Tave 466~480 nm, B / Tave 480~560 nm, B / Tmin 425~465 nm, A / Tmin 466~480 nm, A / Tmin 466~480 nm, B: silicone resin film; for Tave 425~465 nm, A / Tave 466~480 nm, A / Tave 480~560 nm, A / Tave 425~465 nm, B / Tave 466~480 nm, B / Tave 480~560 nm, B: average transmittance; for Tave 425~465 nm, A / Tave 466~480 nm, A / Tave 480~560 nm, A / Tmin 425~465 nm, A / Tmin 466~480 nm, A: after 85° C., 85% relative humidity, 120 hours
Protocol: 2. Evaluation of Transmittance Spectrum
The transmittance spectrum was measured by using a spectrophotometer (Manufacturer: Perkinelmer Co., Product Name: Lambda 750 Spectrophotometer) for a specimen obtained by cutting the measurement subject (e.g., an optical absorption film) to 10 mm and 10 mm in width and length, respectively. The transmittance spectrum was measured for each wavelength and incident angle according to the manual of the equipment. The specimen was placed on a straight line between the measuring beam and the detector of the spectrophotometer, and the transmittance spectrum was checked while changing the incident angle of the measuring beam from 0° to 40°. Unless specifically stated otherwise, the result of the transmittance spectrum in this embodiment was the result when the incident angle is 0°. The incident angle of 0° is a direction substantially parallel to the direction normal to the surface of the specimen.
The average transmittance within a predetermined wavelength region in the transmittance spectrum was the result of measuring the transmittance of each wavelength while increasing the wavelength by 1 nm from the shortest wavelength in the wavelength region, and then calculating the arithmetic average of the measured transmittance. The maximum transmittance is the maximum one among the transmittance measured while increasing the wavelength by 1 nm. For example, the average transmittance within the wavelength range of 350 nm to 360 nm is the arithmetic average of transmittances measured at wavelengths of 350 nm, 351 nm, 352 nm, 353 nm, 354 nm, 355 nm, 356 nm, 357 nm, 358 nm, 359 nm and 360 nm and the maximum transmittance within the wavelength range of 350 nm to 360 nm is the highest transmittance among transmittances measured at wavelengths of 350 nm, 351 nm, 352 nm, 353 nm, 354 nm, 355 nm, 356 nm, 357 nm, 358 nm, 359 nm and 360 nm.
(§1) A coating solution was prepared by mixing a silicone resin (Dow Chemical, RSN-0217) as a resin component, an optical absorbent, and a solvent (Cyclohexanone). The mixing ratio of the resin component, the optical absorbent and the solvent was 69.3:0.99:29.7 in weight ratio (Resin:Optical Absorbent:Solvent).
(§2) The coating solution was coated on a transparent substrate (a glass substrate manufactured by SCHOTT Co.) and maintained at 140° C. for about 2 hours to form an optical absorption film having a thickness of about 6 μm. The optical absorbent of Embodiment 1, Embodiment 2 or Comparative Example 1 was used as the optical absorbent.
Table 2 below summarizes the transmittance of the optical absorption film before and after reliability evaluation in the ultraviolet and the near infrared regions. The reliability evaluation is an evaluation of the optical absorption film maintained at 85° C. and 85% relative humidity for 120 hours. In Table 2, B means the result before performing the reliability evaluation, and A means the result after performing the reliability evaluation. In addition, in Table 2, Λmax means the transmittance at the absorption maximum.
In Table 2, Δ is the change rate (%) of each characteristic before and after the reliability evaluation and it is a result calculated as 100×(A−B)/B, where A is a numerical value indicated under column A in Table 2, and B is a numerical value indicated under column B in Table 2. In Table 2, Tmax denotes the highest transmittance within a corresponding wavelength range, Tave denotes an average transmittance within a corresponding wavelength range, and Tmin denotes a minimum transmittance within a corresponding wavelength range.

[2] = Measuring solubility of the optical absorbent in methylene chloride; conditions: room temperature (about 25° C.)
Protocol: 3. Measuring Solubility The solubility of the optical absorbent was evaluated. Solubility was determined according to the following criteria by evaluating the solubility of the optical absorbent in the solvent (MC, Methylene Chloride) at room temperature (about 25° C.). <Solubility Criteria> • A: When the solubility is 1% by mass or more. • B: When the solubility is 0.5% by mass or more and less than 1% by mass. • C: When the solubility is 0.2% by mass or more and less than 0.5% by mass. • D: When the solubility is less than 0.2% by mass. 4. Pyrolysis Temperature (Td 5%) Analysis

[3] = Pyrolysis temperature (Td 5%) analysis by TGA; conditions: 25° C. to 800° C., 10° C./min, nitrogen 60 cm^3/min
Protocol: The Td 5% is a value obtained through Thermogravimetric Analysis (TGA). It is a value (Td 5%) at the weight loss of 95% confirmed in a temperature range of 25° C. to 800° C., with a heating rate of 10° C./min and under nitrogen (N2) atmosphere condition of 60 cm^3/min.
Thermogravimetric analysis (TGA) was performed by using TGA N-1000 equipment manufactured by Scinco Co. The analysis was performed by using about 3 mg of the sample (optical absorbent) and the analysis was conducted at a temperature range of 25° C. to 800° C., with a temperature increase rate of 10° C./min, and under 60 cm^3/min of a nitrogen (N2) atmosphere. As for the Td pyrolysis temperature, the value(Td 5%) at 95% weight loss was used.

[4] = Measuring absorption maximum of the optical absorbent in chloroform; conditions: about 10^−5 M
Protocol: 1. Measuring Absorption Maximum
The absorption maximum was evaluated by a conventional method. Specifically, the sample was dissolved in a chloroform solvent at a concentration of about 10^−5 M and then evaluated by using a measuring instrument (Agilent, Varian Cary 4000).

[5] = Test Example 2: absorption maximum of optical absorption film before and after high temperature and high humidity evaluation; conditions: for ΔA: 100×(Af−Ai)/Ai; for Δλ: 100×(λf−λi)/λi; for Ai (transmittance at the absorption maximum wavelength) / λi (absorption maximum wavelength): optical absorption film before being maintained at 85° C.; for Af (transmittance at the absorption maximum wavelength) / λf (absorption maximum wavelength): optical absorption film maintained at 85° C.
Protocol: as §1, §2
For the optical absorption film prepared in Test Example 1, the absorbance spectrum of the optical absorption film prepared by using the optical absorbent of Embodiment 1 is shown in FIG. 7, the absorbance spectrum of the optical absorption film prepared by using the optical absorbent of Embodiment 2 is shown in FIG. 8, and the absorbance spectrum of the optical absorption film prepared by using the optical absorbent of Comparative Example 1 is shown in FIG. 9. In FIGS. 7 to 9, A-1, A-2, and A-3 indicate evaluations of the optical absorption films of Embodiments 1 and 2 and Comparative Example 1, respectively. […] The high-temperature and high-humidity evaluation is an evaluation where the optical absorption film is maintained at a temperature of 85° C. and under a relative humidity of 85% for 120 hours.
In Table 3, Af is the transmittance at the absorption maximum wavelength of the optical absorption film maintained at 85° C. temperature and under 85% relative humidity for 120 hours, λf is the absorption maximum wavelength at this time, and Ai is the transmittance at the absorption maximum wavelength of the optical absorption film before being maintained at 85° C. temperature and under 85% relative humidity for 120 hours. λi is the absorption maximum wavelength at this time.
In Table 3, ΔA is a value calculated as 100×(Af−Ai)/Ai and Δλ is a value calculated as 100×(λf−λi)/λi.

[6] = 85% relative humidity, 120 hours

| Structure (SMILES) | Tave 425~465 nm, Δ [1] [%] | Tave 466~480 nm, Δ [1] [%] | Tave 480~560 nm, Δ [1] [%] | Tmin 425~465 nm, Δ [1] [%] | Tmin 466~480 nm, Δ [1] [%] | Λmax Tmax, Δ [1] [%] | Tmin 425~465 nm, B [1] | Tave 425~465 nm, A [1] | Tave 466~480 nm, A [1] | Tave 480~560 nm, A [1] | Tave 425~465 nm, B [1] | Tave 466~480 nm, B [1] | Tave 480~560 nm, B [1] | Tmin 425~465 nm, A [1] | Tmin 466~480 nm, A [1] | Tmin 466~480 nm, B [1] | Solubility [2] | Td 5% (5% pyrolysis temperature) [3] [°C] | Absorption Maximum Wavelength [4] [nm] | ΔA [5] [%] | also measured |
| --- | --- | --- | --- | --- | --- | --- | --- | --- | --- | --- | --- | --- | --- | --- | --- | --- | --- | --- | --- | --- | --- |
| C/C(C1=Nc2ccc([Si](C)(C)C)cc2C1(C)C)=C1/C(=O)C(C(/C)=C2/Nc3ccc([Si](C)(C)C)cc3C2(C)C)=C1O [Comparative Example 1, reference compound] | 0 | −0.1 | −0.1 | 0.3 | −0.1 | 34.7 | 91.35 | 92.03 | 92.07 | 92.27 | 91.99 | 92.14 | 92.32 | 91.62 | 91.76 | 91.84 | A (When the solubility is 1% by mass or more) | 187 | 738 | 36.7 | Absorption Maximum Wavelength ([4]; listed as A3): about 738 nm; Δλ [5]: 24.4%; Ai (transmittance at the absorption maximum wavelength) [5, 6]: 66.3%; λi (absorption maximum wavelength) [5, 6]: 731 nm; Af (transmittance at the absorption maximum wavelength) [5, 6]: 90.6%; λf (absorption maximum wavelength) [5, 6]: 909 nm; light absorption characteristics before and after high temperature and high humidity ([5]; optical absorption film, 85° C., 85% relative humidity, 120 hours, FIGS. 7 to 9): almost lost |
| CC1N(CCC[Si](C)(C)C)c2ccc(C3=C([O-])/C(=c4\ccc5c(c4)C(C)(C)C(C)[N+]=5CCC[Si](C)(C)C)C3=O)cc2C1(C)C (stereo not shown) [Embodiment 1] | −0.3 | −0.1 | −0.1 | −0.2 | 0 | 8.2 | 89.64 | 90.26 | 89.58 | 91.06 | 90.49 | 89.64 | 91.17 | 89.42 | 89.10 | 89.06 | A (When the solubility is 1% by mass or more) | 247 | 652 | 8.2 | Absorption Maximum Wavelength ([4]; listed as A1): about 652 nm; Δλ [5]: 0%; Ai (transmittance at the absorption maximum wavelength) [5, 6]: 6.12%; λi (absorption maximum wavelength) [5, 6]: 658 nm; Af (transmittance at the absorption maximum wavelength) [5, 6]: 6.62%; λf (absorption maximum wavelength) [5, 6]: 658 nm |
| CC1N(CCC[Si](C)(C)C)c2c(cc(C3=C([O-])/C(=c4/cc5c(c6ccccc46)=[N+](CCC[Si](C)(C)C)C(C)C5(C)C)C3=O)c3ccccc23)C1(C)C (stereo not shown) [Embodiment 2] | −0.2 | 0 | −0.1 | −0.3 | 0.1 | 7 | 88.75 | 89.72 | 88.64 | 90.86 | 89.87 | 88.61 | 90.93 | 88.52 | 87.95 | 87.88 | A (When the solubility is 1% by mass or more) | 260 | 772 | 6.8 | Absorption Maximum Wavelength ([4]; listed as A2): about 772 nm; Δλ [5]: 0%; Ai (transmittance at the absorption maximum wavelength) [5, 6]: 8.91%; λi (absorption maximum wavelength) [5, 6]: 765 nm; Af (transmittance at the absorption maximum wavelength) [5, 6]: 9.52%; λf (absorption maximum wavelength) [5, 6]: 765 nm |
